Where no end group is shown, it is not given here.
Key:
[1] = tested on: Escherichia coli; assay: Bactericidal effect of antimicrobial peptides in microtiter plates, colony count; assay type: cell-based; settings: approximately 1×10^5 bacteria/ml, 4 hours at room temperature, plated on LB, FIG. 2
Description: The cell cultures were incubated at room temperature in the presence of indicated concentration of Dermaseptin B (DSB; 7 μg/ml, 30 μg/ml, and 75 μg/ml), Temporin A (TA; 75 μg/ml, 133 μg/ml, 200 μg/ml) and a combination of Temporin A and Dermaseptin B (133 μg/ml Temporin A and 30 μg/ml Dermaseptin B) for 4 hours, diluted and plated on LB plates. After overnight incubation at 37° C., the colonies were counted and the survival of bacteria was scored.
(§1) Bactericidal effects of antimicrobial peptides (SEQ ID NO: 34 (MRSA3) and SEQ ID NO: 28 (MRSA2)) were determined against Escherichia coli (FIG. 2) and Erwinia carolovora (FIG. 3) in microtiter plates in a final volume of 220 μl containing approximately 1×10^5 bacteria/ml and indicated concentration of antimicrobial peptides. The cell cultures were incubated at room temperature for 4 hours, diluted and plated on LB plates. After overnight incubation at 37° C. (E. coli) or 28° C. (E. carotovora) the colonies were counted and the survival of bacteria was scored.

[2] = tested on: Erwinia carotovora; assay: as above; assay type: cell-based; settings: approximately 1×10^5 bacteria/ml, 4 hours at room temperature, plated on LB, FIG. 3
Description: The cell cultures were incubated at room temperature in the presence of indicated concentration of Dermaseptin B (DSB; 23 μg/ml, 45 μg/ml) or Temporin A (TA; 67 μg/ml, 133 μg/ml) for 4 hours, diluted and plated on LB plates. After overnight incubation at 28° C., the colonies were counted and the survival of bacteria was scored.
as §1

Row | Substance | bactericidal effect, survival of bacteria [1] | bactericidal effect, survival of bacteria [2]
1 | MRSA3: mature 13 amino acid form of temporin A with a 6 amino acid N-terminal extension MASRHM; called Temporin A in figure legends (MASRHMFLPLIGRVLSGIL; ends and bridges not checked; listed as Rana temporaria) | significant antimicrobial activity | significant antimicrobial activity
2 | MRSA2: mature 27 amino acid form of dermaseptin b with a 5 amino acid N-terminal extension MAMWK; called Dermaseptin B in figure legends (MAMWKDVLKKIGTVALHAGKAALGAVADTISQ; ends and bridges not checked) | significant antimicrobial activity | significant antimicrobial activity
